From PubChem BioAssay AID179 (DTP/NCI, 2004)
“And” between values parts separate entries of the source, which are not always exact repeats. Identical values can stand only once. The source made the active and inactive calls.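 Rule for the calls: active = compounds giving half or more protection of infected cells from virus-caused growth loss, again on retest; inactive = the rest.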

System: CEM cells HIV-1 protection, formazan growth assay
Assay: NCI AIDS Antiviral Assay
Settings: for IC50: measured here: growth of uninfected CEM cells
How it was run: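 Human CEM cells, uninfected and HIV-1-infected, received five drug concentrations, and growth was read by soluble formazan assay. Compounds giving at least 50% protection were retested; reproducible 100% protection defined confirmed active.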

| Compound | EC50 | IC50 | outcome |
| --- | --- | --- | --- |
| C=CCc1c(O)c2ccccc2[nH]c1=O | > 200 µM | > 200 µM | – |
| CC1=NN(C(=O)c2ccc(Cl)cc2)C(=O)/C1=C/c1cccc([N+](=O)[O-])c1 | > 19.5 µM | > 19.5 µM | – |
| c1ccc([As](c2ccccc2)c2cccc[c]2[Bi]([c]2ccccc2)[c]2ccccc2)cc1 | > 10.7 µM | > 10.7 µM | – |
| C/C(=C/CNc1ncnc2c1ncn2CCC#N)CO | > 200 µM | > 200 µM | – |
| O=C(N/C(=C\c1ccc([N+](=O)[O-])cc1)c1nc2ccc(Cl)cc2[nH]1)c1ccccc1 | – | – | inactive |
| COc1ccccc1NCc1nnc(CCCCCCCCc2nnc(CNc3ccccc3OC)o2)o1 | > 200 µM | > 200 µM | – |
| CC(=O)/C(=C/N1CCNC1=S)C(=O)Nc1ccc(Cl)cc1 | – | – | inactive |
| COc1ccc(O)c2c(=O)ccccc12 | – | – | inactive |
| O=C(O)CCCc1cc2c(s1)-c1cccc3cccc-2c13 | > 33.9 µM | > 33.9 µM | – |
| CC(C)(C)OC(=O)Cn1ncn(NC(=O)Cc2ccccc2)c1=S | > 200 µM | > 200 µM | – |
| CCc1ccc(/C(C#N)=C/c2ccccc2Cl)cc1 | > 200 µM | 27.5 µM | – |
| CCNC1C2(CCCCC2)NC(=O)C12CCCCC2 (stereo not drawn) | – | – | inactive |
| CC(C(=O)NCNC(=O)c1ccccc1)C(=O)NCc1ccccc1 (stereo not drawn) | – | – | inactive |
| O=C(O)c1ccccc1Sc1ccc(C=C2NC(=S)N(c3ccccc3)C2=O)s1 | > 200 µM | 97.7 µM | – |
| CN(C)[C@@H]1C(=O)C(C(=O)NCNc2cccc(C(=O)O)c2C(=O)O)=C(O)[C@@]2(O)C(=O)C3=C(O)c4c(O)cccc4[C@@](C)(O)[C@H]3C[C@@H]12 | > 5.89 µM | > 5.89 µM | – |
| N#CC(C#N)=C(C#N)C#N | > 200 µM | > 200 µM | – |
| CSc1nc2c(=O)oc(-c3ccccc3)nc2s1 | > 200 µM | 6.03 µM | – |
| COc1cc2c(ccc3c4cc(OC)c(OC)cc4c[n+](C)c23)cc1O | > 324 µM | 1.48 µM | – |
| COc1cccc2c1C(=O)c1c(O)c3c(c(O)c1C2=O)C[C@@](O)(C(=O)CO)C[C@@H]3OC1CC(N(C)C)C(O)C(C)O1 (stereo partly drawn) | > 0.2 µM | 0.0631 µM | – |
| CC(=O)OC12c3ccccc3C1CCCC21OCCCO1 (stereo not drawn) | > 200 µM | > 200 µM | – |
| COc1cccc(N2C(=O)c3c(c4[nH]c5ccccc5c4c4ccc(C(C)(C)C)cc34)C2=O)c1 | > 11.5 µM | > 11.5 µM | – |
| O=C(NC(CCCCN1C(=O)c2ccccc2C1=O)P(=O)(Oc1ccccc1)Oc1ccccc1)OCc1ccccc1 (stereo not drawn) | > 200 µM | 95.5 µM | – |

| Compound | EC50 | IC50 | outcome |
| --- | --- | --- | --- |
| Nc1nc(=O)n(C2OC(CO)CC2F)cc1Cl (stereo not drawn) | > 191 µM | > 191 µM | – |
| CC(=O)N1C(=O)CC2(N=C(C)CC2=O)c2ccccc21 (stereo not drawn) | > 200 µM | > 200 µM | – |
| COc1ccc(NC(=O)CC(=O)Nc2ccc(OC)cc2)cc1 | 170 µM | > 200 µM | – |
| OCCCN(Cc1ccccc1)CC(O)c1ccc(OCc2ccccc2)c(OCc2ccccc2)c1 (stereo not drawn) | > 200 µM | 9.55 µM | – |
| CCC1(O)CCCC2C3CCC4CC(=O)CCC4(C)C3C(=O)CC21C (stereo not drawn) | > 200 µM | 105 µM | – |
| O=c1ccn(CC2OCC(CO)O2)c(=O)[nH]1 (stereo not drawn) | > 2750 µM | 1150 µM and > 2750 µM | – |
| COCc1c(C(=O)NCCO)[n+](=O)c2ccccc2n1[O-] | > 87.1 µM | > 87.1 µM | – |
| CCOc1snc(C(Cl)(Cl)Cl)c1Cl | > 200 µM | > 200 µM | – |
| N#CC12C(=O)N3C(=NC(c4ccccc4)NC3c3ccccc3)C1(C#N)C(c1ccccc1)NC1=C2CCC1 (stereo not drawn) | > 200 µM | > 200 µM | – |
| CC1(C)COC(c2ccccc2Br)=N1 | > 200 µM | > 200 µM | – |
| NC(=O)CSc1nc2ccccc2c(=O)n1N | > 200 µM | > 200 µM | – |
| COc1cc(OC)c2c(=O)c3cccc(C)c3n(C)c2c1 | > 200 µM | 95.5 µM | – |
| O=[P+](O)c1cc2ccccc2c2ccccc12 | – | – | inactive |
| O=[N+]([O-])c1ccccc1P1(=O)OCCO1 | > 200 µM | > 200 µM | – |
| COC(=O)[C@H](Cc1ccc(OC(C)(C)C)cc1)N[C@H](C)C(=O)N[C@@H](Cc1ccccc1)C(=O)OCc1ccccc1 | > 200 µM | 27.5 µM | – |
| COC/N=C(/N)NC#N | > 692 µM | > 692 µM | – |
| O=C(N/N=C\C(F)(F)F)c1ccncc1 | > 200 µM | 3.55 µM | – |
| Cc1cc(NCCCCCCCNc2cc(C)nc3cc(N)ccc23)c2ccc(N)cc2n1 | 5.89 µM | 8.71 µM | – |
| COc1cc2c(cc1OC)CCc1cc(OC)c(OC)cc1CC2 | > 200 µM | 89.1 µM | – |
| CCN(CC)CCCCC1CCN(CC(=O)N2c3cc(Cl)ccc3NC(=O)CC2C)CC1 (stereo not drawn) | > 251 µM | 66.1 µM | – |
| Cc1ncc2c(n1)CCC1=C2OS(=O)(=O)CC1N(C)C (stereo not drawn) | > 200 µM | 38.9 µM | – |
| Cc1cc2c(=O)c3ccccc3oc2c(C(=O)O)c1C | > 200 µM | > 200 µM | – |

| Compound | EC50 | IC50 | outcome |
| --- | --- | --- | --- |
| O=c1cc(-c2ccccc2)ss1 | > 200 µM | 105 µM | – |
| CCCc1cc(=O)oc2c3c(c4c(c12)OC(C)(C)C=C4)OC(C)[C@H](C)[C@@H]3O (stereo partly drawn) | 5.01 µM | 13.8 µM | – |
| NC(C(=O)OC(=O)c1ccccc1)C(=O)OC(=O)c1ccccc1 | > 200 µM | 97.7 µM | – |
| CC(C)(C)[C@H]1CCC2(OCCO2)[C@](O)(CCCO)C1 | > 200 µM | > 200 µM | – |
| O=C(O)c1c[nH]n2c(=S)ncnc12 | > 871 µM | > 871 µM | – |
| CC(=O)N1CCSC(C(=O)Nc2ccccc2)=C1C | > 646 µM | > 646 µM | – |
| CCN(CC)CCC1CCCCN1CC(=O)N1c2ccccc2NC(=O)CC1C (stereo not drawn) | > 200 µM | > 200 µM | – |
| O=C(OCc1ccccc1)C1CCN1C(c1ccccc1)c1ccccc1 (stereo not drawn) | > 100 µM | > 100 µM | – |
| N#Cc1cc([N+](=O)[O-])ccc1NC(=O)C(=O)C(C(=O)/C=C/c1ccccc1)C1OC(=O)c2ccccc21 (stereo not drawn) | > 191 µM | > 191 µM | – |
| CN1CCCCC1CCN1c2ccccc2Sc2ccc(S(C)=O)cc21 (stereo not drawn) | 166 µM | 219 µM | – |
| O=C1CC(=O)N(CCc2ccccn2)C(=O)N1CCc1ccccn1 | – | – | inactive |
| CC#N.CC#N.COC(=O)[C@@H]1COC(=O)[N-]1.COC(=O)[C@@H]1COC(=O)[N-]1.COC(=O)[C@@H]1COC(=O)[N-]1.COC(=O)[C@@H]1COC(=O)[N-]1.[Rh+2].[Rh+2] | > 200 µM | > 200 µM | – |
| O=C1[C@H]2CCCC[C@H]2C(=O)N1N1C(=O)[C@H]2CCCC[C@H]2C1=O | – | – | inactive |
| O=C1CSSCC(=O)NCCCN1 | > 45.7 µM | > 45.7 µM | – |
| COc1ccc2nc3cc(Cl)ccc3c(NCCC[N+](C)(C)CCCCCCCCCCCCCCCC[N+](C)(C)CCCNc3c4ccc(Cl)cc4nc4ccc(OC)cc34)c2c1 | – | – | inactive |
| COc1cc2c(cc1OC)c1c(OC)c(OC)cc3c1c1c2sc(=S)n1CC3 | – | – | inactive |
| CC(=O)CCCC(CC(C)O)[Si](C)(C)C (stereo not drawn) | > 1070 µM | 562 µM | – |
| CC(=O)Nc1nnc(S(C)(=O)=O)s1 | > 1120 µM | 851 µM | – |
| CC(=O)/C(N=Nc1ccc(-n2c(C)nc3ccc(Br)cc3c2=O)cc1)=C(/C)O | > 200 µM | 148 µM | – |
| O=C(Cn1ccnc1[N+](=O)[O-])NCc1ccc(F)cc1 | > 178 µM | > 178 µM | – |
| CC(=O)c1c(-c2ccc(Cl)cc2)c(C#N)c(=S)n(C2OC(CO)C(O)C(O)C2O)c1-c1ccccc1 (stereo not drawn) | > 200 µM | 28.2 µM and 14.1 µM | – |
| Nc1ccc2nc3ccc(O)cc3nc2c1 | > 200 µM | 17 µM | – |

| Compound | EC50 | IC50 | outcome |
| --- | --- | --- | --- |
| CN(C)c1nc(N(C)C)nc(N(C)C)n1 | > 34.7 µM | 26.3 µM | – |
| COc1nn(Cc2ccccc2F)c2ccc([N+](=O)[O-])cc12 | > 200 µM | 50.1 µM | – |
| CCOC(=O)C(CC(CO)(C(C)=O)C(=O)OCC)C(C)=O (stereo not drawn) | > 200 µM | 22.4 µM | – |
| Clc1ccc(N=c2ccc3ccccc3[oH+]2)cc1.Clc1ccc(N=c2ccc3ccccc3[oH+]2)cc1.[Co] | – | – | inactive |
| O=C(O)c1ccc2c(c1)S(=O)(=O)NC2=O | > 1100 µM | > 1100 µM | – |
| O=C1CC(CC(O)C2CCCC2O)CC(=O)N1 (stereo not drawn) | > 200 µM | > 200 µM | – |
| CCOC(=O)CCC(NC(=O)OCc1ccccc1)C(=O)NC(CCC(=O)OCC)C(=O)NC(CCC(=O)OCC)C(=O)NC(CCC(=O)OCC)C(=O)NC(CCC(=O)OCC)C(=O)OCC (stereo not drawn) | > 100 µM | > 100 µM | – |
| COc1cc2c(cc1O)C(CSC)Cc1cc(OC)c(OC)cc1N(C)CCC2 (stereo not drawn) | > 200 µM | 38.9 µM | – |
| CCCCc1ccc(Nc2nc(Cl)c3ncn(COCCOC(C)=O)c3n2)cc1 | > 200 µM | 13.8 µM | – |
| COc1ccc(NC(=O)/C(C#N)=C/c2ccc(O)c(O)c2)cc1O | > 200 µM | 16.2 µM | – |
| O=C(Nc1nc2ccccc2n1Cc1ccc(Cl)cc1)C(=O)NC12CC3CC(CC(C3)C1)C2 | > 21.4 µM | > 21.4 µM | – |
| CN=c1ss/c(=N\C(=S)N(C)C)n1C1CCCCC1 | – | – | inactive |
| S=c1nc2sc3c(c2c(Nc2ccc(Cl)cc2)[nH]1)CCCC3 | 43.7 µM | 132 µM | – |
| COCCNC1CCC(=O)c2[nH]c3ccccc3c21 (stereo not drawn) | > 200 µM | > 200 µM | – |
| COc1cc(-c2cc(=O)c3c(OC)c(OC)c(OC)c(OC)c3o2)cc(OC)c1OC | > 200 µM | 28.2 µM | – |
| COC(=O)[C@@H]1C[C@@]23CCCN4CC[C@@]5(c6cccc(OC)c6N(C=O)[C@]15CC2)[C@@H]43 | > 66.1 µM | > 66.1 µM | – |
| CSCCC(N)CO (stereo not drawn) | > 200 µM | > 200 µM | – |
| O=S(=O)(Nc1nc2ccccc2nc1Nc1ccc2ccccc2c1)c1ccccc1 | > 200 µM | 10.5 µM | – |
| CN1/C(=C/C=C/C=C/C=C2C(=O)c3ccccc3C2=O)C(C)(C)c2ccccc21 | 120 µM | 151 µM | – |
| N#CC(C(=O)Nc1ccccc1)C1=C(Cl)C(=O)c2ccccc2C1=O (stereo not drawn) | > 251 µM | 39.8 µM | – |
| COC(=O)C12CCC(=O)N1CC(=O)c1c2[nH]c2ccccc12 (stereo not drawn) | – | – | inactive |
| OCC(O)C(O)C(O)C(O)c1nc2ccccc2s1 (stereo not drawn) | > 126 µM | 97.7 µM | – |
